Measured values taken from patent US7850984B2, “Protection of the female reproductive system from natural and artificial insults” (The General Hospital Corporation, priority 2000, dated 2010).

How the values were obtained:
oocytes [1] = experiment: Microinjection of recombinant protein into single oocytes, apoptosis; assay type: cell-based, mouse; details: wild-type oocytes; ASMase: six picoliters of a 1 mg/ml stock
Experimental: Human recombinant acid sphingomyelinase is synthesized and purified as described by He et al., Biochim. Biophys. Acta 1432, 251 (1999), incorporated herein by reference in its entirety. Six picoliters of vehicle or of a 1 mg/ml stock of the enzyme are microinjected into single oocytes using a Zeiss Axiovert 135 inverted microscope equipped with Narishige micromanipulators and a PLI-100 pico-injector. Oocytes that survive the microinjection procedure (>75%) are then cultured and assessed for the occurrence of apoptosis. Furthermore, microinjection of human recombinant Bax protein into single oocytes and assessments of apoptosis are made as described by Perez, et al. (1997) id. Microinjection of human recombinant Bax protein into oocytes duplicates the pro-apoptotic effects of both human recombinant ASMase microinjection and anti-cancer drug treatment (FIG. 3E).

[2] = system: germ cells of wild-type fetal ovaries (e13.5); experiment: Fetal ovary culture without hormonal support, germ cell survival; assay type: cell-based, mouse; details: wild-type fetal ovaries, 72 hours in vitro without hormonal support; FB1 5-500 μM; S1P increasing concentrations
Experimental: To determine the basis of the extensive oocyte hyperplasia in ASMase −/− neonates, fetal ovaries are harvested from wild-type and mutant mice at embryonic day 13.5 (e13.5) for in vitro culture as a model to recapitulate the events surrounding germline death that occurs as a normal component of female gametogenesis. A time-dependent activation of programmed cell death is observed in the germline of wild-type fetal ovaries cultured without hormonal support for up to 72 hours (FIG. 2A). […] These findings indicate that there exists an ovarian-intrinsic cell death defect in the ASMase-deficient mouse, and point to enhanced survival of the developing germline during oogenesis as the mechanism underlying the enlarged oocyte pool seen in mutant females at birth.
Equivalent levels of in vitro germ cell survival are obtained by either ASMase gene knockout (FIG. 2A) or by S1P treatment (FIG. 2B).

oocytes [3] = details: female mouse oocytes; Perez et al. (1997); cited from earlier work
oocytes [4] = experiment: In vitro oocyte culture with or without doxorubicin, apoptosis; assay type: cell-based, mouse; details: 200 nM DXR, 24 hours, wild-type versus ASMase-deficient oocytes
Experimental: In addition to assessments of cellular morphology and caspase activation, some oocytes in each group are processed for DNA cleavage analysis as an endpoint for cell death using the Trevigen Comet Assay kit.
Female mice (43 days of age post-partum; Charles River Laboratories, Wilmington, Mass.) are superovulated with 10 IU of equine chorionic gonadotropin (eCG orPMSG) followed by 10 IU of human chorionic gonadotropin (hCG) 48 h later. Mature oocytes are collected from the oviducts 16 h after hCG injection. Cumulus enclosed oocytes are denuded by a 1-min incubation in 80 IU/ml of hyaluronidase, followed by three washes with culture medium. The medium used for all culture experiments is human tubal fluid (Irvine Scientific, Santa Ana, Calif.) supplemented with 0.5% bovine serum albumin (BSA).
Oocytes are cultured in 0.1 ml drops of culture medium (8-10 oocytes/drop) under paraffin oil and incubated with or without DXR (200 nM) and/or fumonisin-B1, sphingosine-1-phosphate or benzyloxycarbonyl-Val-Ala-Asp-fluoromethylketone (zVAD-FMK) for 24 h at 37° C. in a humidified atmosphere of 5% CO2-95% air. […] The percentage of oocytes that go through apoptosis out of the total number of oocytes cultured per drop in each experiment is then determined, and all experiments are independently repeated four to ten times with different mice.

## human recombinant Bax: human recombinant Bax protein microinjected into single oocytes
Oocytes [1]
  apoptosis after microinjection versus vehicle-injected oocytes: significant (P<0.05) increase in apoptosis

## CCCC[C@@H](C)[C@@H](OC(=O)C[C@@H](CC(=O)O)C(=O)O)[C@H](C[C@@H](C)C[C@H](O)CCCC[C@@H](O)C[C@H](O)[C@H](C)N)OC(=O)C[C@@H](CC(=O)O)C(=O)O [FB1, fumonisin-B1, reference compound]
[2]
  germ cell survival / germ cell apoptosis in cultured fetal ovaries: does not alter survival rates in the female germline

## COc1cccc2c1C(=O)c1c(O)c3c(c(O)c1C2=O)C[C@@](O)(C(=O)CO)C[C@@H]3O[C@H]1C[C@H](N)[C@H](O)[C@H](C)O1 [DXR, doxorubicin, reference compound]
Oocytes [3]
  oocyte cell death on in vitro exposure: undergo a type of cell death, referred to as apoptosis
Oocytes [4]
  apoptotic event in oocytes: elicited in wild-type, but not ASMase-deficient, oocytes

B1: human recombinant ASMase: human recombinant acid sphingomyelinase enzyme microinjected into single oocytes (protein, UniProt P17405 47-631, looked up)
Sphingomyelin …: LALSDSRVLWAPAEAHPLSPQGHPARLHRIVPRLRDVFGWGNLTCPICKGLFTAINLGLKKEPNVARVGSVAIKLCNLLKIAPPAVCQSIVHLFEDDMVEVWRRSVLSPSEACGLLLGSTCGHWDIFSSWNISLPTVPKPPPKPPSPPAPGAPVSRILFLTDLHWDHDYLEGTDPDCADPLCCRRGSGLPPASRPGAGYWGEYSKCDLPLRTLESLLSGLGPAGPFDMVYWTGDIPAHDVWHQTRQDQLRALTTVTALVRKFLGPVPVYPAVGNHESTPVNSFPPPFIEGNHSSRWLYEAMAKAWEPWLPAEALRTLRIGGFYALSPYPGLRLISLNMNFCSRENFWLLINSTDPAGQLQWLVGELQAAEDRGDKVHIIGHIPPGHCLKSWSWNYYRIVARYENTLAAQFFGHTHVDEFEVFYDEETLSRPLAVAFLAPSATTYIGLNPGYRVYQIDGNYSGSSHVVLDHETYILNLTQANIPGAIPHWQLLYRARETYGLPNTLPTAWHNLVYRMRGDMQLFQTFWFLYHKGHPPSEPCGTPCRLATLCAQLSARADSPALCRHLMPDGSLPEAQSLWPRPLFC
Oocytes [1]
  apoptosis after microinjection versus vehicle-injected oocytes: significant (P<0.05) increase in apoptosis
